From patent US11603387B2, “SOCS mimetics for the treatment of diseases” (UNIVERSITY OF FLORIDA RESEARCH FOUNDATION, INC., priority 2014, dated 2023)

What was measured:
[1] = system: SOCS1−/− mice; assay: Lethal perinatal auto-inflammatory disease in SOCS1−/− mice; format: in vivo, mouse; conditions: peptide combined with CD4 T cells
Description: FIGS. 15A-15F. SOCS1-KIR inhibition of lethal inflammatory pathology in SOCS1−/− mice is correlated to enhanced regulatory T cell homeostasis. (FIG. 15A) Kaplan Meier curve showing survival of SOCS1^−/− (black square; n=7) or CD4^+/SOCS1-KIR treatment (purple triangles, n=12). Numbers of mice in each group are indicated in parentheses. Mice were euthanized when moribund with survival comparisons by Mantel-Cox. Statistical significance denoted by asterisks. (FIG. 15B) Photographs of H & E stains depicting heart and liver tissues of 2 week old SOCS1^−/−, SOCS1^−/− mice receiving dual treatments, or littermate control mice. Photographs shown of H & E stained liver and heart of untreated SOCS1^−/− (N=8) and WT (N=7) mice are representative of 100% of samples analyzed. Photographs shown of H & E stained liver and heart of SOCS1^−/− mice receiving combined treatments are representative of 2 out of 5 mice in regard to heart samples and 1 out of 5 mice in regards to liver tissue. (FIG. 15C) Graph showing average daily weights of SOCS1^−/− mice untreated (n=16), CD4^+/SOCS1-KIR treatment (n=12), or WT littermate controls (n=9) over a two week period. (FIG. 15D) Photographs of 2 week old SOCS1^−/− mice, SOCS1^−/− mice receiving dual treatment, and WT littermate controls. (FIG. 15E) Graphs showing IFNg levels within the sera of 2 week old WT (n=7) or SOCS1^−/− mice with (n=8) and without (n=10) CD4^+/SOCS1-KIR treatment, measured by ELISA. (FIG. 15F) Graphs showing absolute numbers of CD4^+Foxp3^+ lymphocytes present in two week old SOCS1^−/− and WT littermate control mice with or without CD4^+/SOCS1-KIR treatment and WT 6-8 week old adult mice. Each dot is representative of an individual mouse with averages denoted by lines. Statistics were performed using unpaired, two-tailed t test comparing treated SOCS1^−/− to untreated SOCS1^−/− 2 wk. Statistical significance is denoted by asterisks. *, p≤0.05; **, p 0≤0.005; ***, p≤0.0005.

[2] = system: SOCS1+/+ or SOCS1+/− CD4+CD25− T cells; assay: CD4+ T cell proliferation (CFSE labeling, cell counts, 3H thymidine incorporation); format: cell-based, mouse; conditions: αCD3 + SOCS1-KIR peptide (20 μM), 72 h
Procedure: FIGS. 5A-5D. […] (FIGS. 5A and 5B) SOCS1^+/+ or SOCS1^+/− CD4^+CD25^− T cells were stimulated with αCD3 antibodies alone or with αCD3+SOCS1-KIR peptide (20 μM) for 72 h. (FIG. 5A) CD25 expressing cells were assessed by flow cytometry. Results are representative of 4 independent experiments. (FIG. 5B) Proliferation was assessed by CFSE labeling and flow cytometry, cell counts, and ^3[H] thymidine incorporation. n=4. (FIGS. 5C and 5D) SOCS1^+/+ or SOCS1^+/− CD4^+CD25^− T cells were placed under Th17 inducing conditions in the absence or presence of SOCS1-KIR peptide (20 μM) (FIG. 5C) IFNγ expression, relative to β-actin., was assessed by qPCR (left) and ELISA (right) (n=4). (FIG. 5D) pSTAT1 and STAT1 protein expressions were assessed by western blotting. Results are representative of 4 independent experiments. Statistical comparisons were performed using Mann-Whitney U test. (*P<0.05). iTh17=Th17 inducing conditions, WT=SOCS1^+/+, and HT=SOCS1^+/−.
CD4^+ T cell proliferation was assessed by CFSE staining, ^3H thymidine incorporation, and absolute cell counts. MACS purified CD4^+CD25^− T cells, isolated from LN and spleen suspension, were stimulated in triplicate (96 well round-bottom plate; 1×10^5 cells/well) with 10 μg/ml anti-CD3 (BD Pharmingen; clone: 145.2C11) alone or in addition to 1.5 μg/ml anti-CD28 (BD Pharmingen; clone 37.51) at 37° C. (5% CO2) in RPMI 1640 (Cellgro; 10-040-CV) containing 10% FBS (INVITROGEN™ GIBCO®), 1% antibiotic/antimycotic (Herndon, Va.), and 50 μM β-ME (MP Biomedicals, Solon, Ohio). After 72 h of incubation, cell cultures were either pulsed with 0.5 mCi ^3H thymidine (GE Healthcare; Arlington Heights, Ill.) or counted and harvested for assessment by flow cytometry. In cultures analyzed by flow cytometry, T lymphocytes were labeled with 10 μg/ml CFSE prior to culture as previously described (Cozzo et al. 2003). ^3H thymidine pulsed T lymphocytes were harvested 16-18 hours after initial pulse followed by the ^3H thymidine incorporation assessment using a Beckman LS3801 Liquid Scintillation System. […]

[3] = system: EAE; conditions: administered in vivo; cited from earlier work
[4] = target: JAK2 (Homo sapiens, UniProt O60674); assay: Binding to the activation loop of JAK2
Chain of JAK2 (O60674 whole entry, species assumed): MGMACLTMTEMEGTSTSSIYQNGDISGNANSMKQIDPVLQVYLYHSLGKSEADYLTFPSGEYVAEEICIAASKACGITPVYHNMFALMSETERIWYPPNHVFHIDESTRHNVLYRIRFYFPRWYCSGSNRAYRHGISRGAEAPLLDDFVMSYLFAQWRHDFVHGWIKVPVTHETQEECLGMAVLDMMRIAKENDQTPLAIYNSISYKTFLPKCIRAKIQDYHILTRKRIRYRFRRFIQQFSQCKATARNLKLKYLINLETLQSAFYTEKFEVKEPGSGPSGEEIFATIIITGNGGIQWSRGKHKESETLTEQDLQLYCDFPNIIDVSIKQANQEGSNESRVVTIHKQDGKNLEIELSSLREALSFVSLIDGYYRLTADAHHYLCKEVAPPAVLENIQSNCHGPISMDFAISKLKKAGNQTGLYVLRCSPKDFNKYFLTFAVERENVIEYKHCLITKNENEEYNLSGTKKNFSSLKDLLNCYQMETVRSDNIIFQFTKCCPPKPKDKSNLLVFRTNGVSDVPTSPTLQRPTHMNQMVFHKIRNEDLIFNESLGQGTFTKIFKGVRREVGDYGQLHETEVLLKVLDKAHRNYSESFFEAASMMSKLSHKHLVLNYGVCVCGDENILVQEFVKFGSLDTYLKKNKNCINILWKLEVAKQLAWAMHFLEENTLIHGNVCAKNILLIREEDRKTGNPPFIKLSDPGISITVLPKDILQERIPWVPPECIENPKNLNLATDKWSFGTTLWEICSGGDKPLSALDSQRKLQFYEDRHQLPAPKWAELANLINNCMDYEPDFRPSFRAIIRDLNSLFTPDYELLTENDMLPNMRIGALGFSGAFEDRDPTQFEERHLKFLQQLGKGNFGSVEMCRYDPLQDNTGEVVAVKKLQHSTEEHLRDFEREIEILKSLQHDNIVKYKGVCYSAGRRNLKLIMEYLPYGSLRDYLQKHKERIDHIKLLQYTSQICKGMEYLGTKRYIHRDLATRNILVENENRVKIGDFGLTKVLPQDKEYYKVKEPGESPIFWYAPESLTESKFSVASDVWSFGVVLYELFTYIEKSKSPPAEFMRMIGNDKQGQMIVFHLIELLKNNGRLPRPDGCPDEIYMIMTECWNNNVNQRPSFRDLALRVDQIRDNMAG

DTHFRTFRSHSDYRRI (SOCS1-KIR peptide) [SOCS1 mimetic peptide corresponding to the KIR region of SOCS1]
Peripheral Foxp3+CD4+ Tregs ([1]; 2 week old SOCS1−/− mice): enhanced peripheral homeostasis of Foxp3+CD4+ Tregs | Leukocytic infiltration into heart and liver ([1]; SOCS1−/− mice): prevent/delay leukocytic infiltration into heart and liver | Quality of life (size and overall health) ([1]; SOCS1−/− mice): improve the quality of life (size and overall health improvement) | Survival ([1]; SOCS1−/− mice): could extend the life | Activation and proliferation of αCD3 treated SOCS1+/− CD4+ T lymphocytes relative to WT ([2]; SOCS1+/− cells): to levels comparable to WT receiving αCD3 stimulation | Proliferation by CFSE labeling ([2]; WT and SOCS1+/− T lymphocytes): reduced proliferation | Absolute cell counts and 3H thymidine incorporation [2]: inhibition of T lymphocyte proliferation | Immune homeostasis and EAE prevention [3]: could both regulate immune homeostasis and prevent EAE | Binding to and inhibition of JAK2 [4]: binds to and inhibits the function of JAK2
